{"source": "patent US8206983B2", "about": "“In vitro methods for the induction and maintenance of plant cell lines as single suspension cells with intact cell walls” (Dow AgroSciences, LLC., priority 2006, dated 2012)", "tested_on": "Xanthi tobacco suspension", "experiment": "Single cell induction by colchicine in Xanthi suspension", "assay_type": "cell-based", "from_the_text": "BY2 suspension-cultured cells were obtained from Japan tobacco and maintained in LSBY2 medium in a 7 day cycle. Jimsonweed suspension and Pettite Havana tobacco suspensions were initiated from callus initiated at DAS and Xanthi suspensions were procured as a sample from Professor Jack Widholm from UIUC, IL. JT-NT1 suspension cells, obtained from Washington University that are maintained in NT1B medium in 7 day cycle were used only for the pectin degradation enzyme study to separate the cells into single cells. The cells were cultured in shake flasks at 25-28° C. in dark on orbital shakers at 150 rpm. […] The NT-1 cell line is widely used and readily available; though, any tobacco suspension cell line is consistent with the practice of the invention. […]\nCell expansion and separation were observed by light microscopy (with Nomarski and dark field optics). Spherical cells and single cells were counted by using a hemacytometer to determine the degree of cell expansion and separation, respectively. Cell numbers in aggregates were determined by treating with 5% (wt/vol) chromium trioxide for 16 hr and counting cells (Henshaw et. al, 1966). Cell viability was determined by staining cells (Yokoyama et. al, 1997) with fluorescein diacetate (FDA) and propidium iodide (PI) using a fluorescent microscope (Zeiss Photomicroscope). […]", "data": [{"smiles": "COc1cc2c(c(OC)c1OC)-c1ccc(OC)c(=O)cc1[C@@H](NC(C)=O)CC2", "note": "[Colchicine]", "values": [{"measurement": "single cell release", "setting": "0.5 mM, 7 d", "result": "partial release of single cells"}, {"measurement": "single cell release", "setting": "1 mM", "result": "Separated single cells"}]}]}
